Assay type in all cases: functional, cell-based
A short description of test [1]: Cytotoxicity against human vincristine-sensitive KB/S cells.
Test [2] is described as follows: Cytotoxicity against human vincristine-resistant KB/VJ300 cells in presence of vincristine.
Test [3] can be described thus: Cytotoxicity against human vincristine-resistant KB/VJ300 cells.

Molecules are shown by their SMILES. Values after ≈ are worked out from the molar mass of the structure shown. Where only a bound is given, the exact number is not on record here.

Usually IC50 stands for the concentration that gives 50% inhibition. Turning to `COC(=O)C1=C2Nc3c(O)cccc3[C@@]23CCN2C[C@@H]([C@H](C)O)[C@@H]1C[C@H]23` [SCHOLARICINE], the IC50 in test [1] is over 25 µg/mL; in test [2], 1.15 µg/mL; in test [3], 13.3 µg/mL (≈ 37.5 µM).

In the case of `COC(=O)C1=C2Nc3c(O)cccc3[C@@]23CCN2C[C@H](C(C)=O)[C@@H]1C[C@H]23` [ALSTOLUCINE E], the IC50 in test [1] was over 25 µg/mL; in test [2], 19.2 µg/mL; in test [3], over 25 µg/mL.

Turning to `COC(=O)C1=C2Nc3ccccc3[C@@]23CCN2C[C@H](C(C)=O)[C@@H]1C[C@H]23` [ALSTOLUCINE F], the IC50 is over 25 µg/mL in test [1], 2.61 µg/mL in test [2] and over 25 µg/mL in test [3].

For `CCOC(=O)O[C@H](C)[C@H]1CN2CC[C@]34C(=C(C(=O)OC)[C@H]1C[C@H]23)Nc1ccccc14` [ALSTOLUCINE A], the IC50 in test [1] was over 25 µg/mL; in test [2], 0.59 µg/mL; in test [3], over 25 µg/mL.

Take `COC(=O)C1=C2Nc3c(OC)cccc3[C@@]23CCN2C[C@H]([C@@H](C)O)[C@@H]1C[C@H]23`: the IC50 in test [1] was over 25 µg/mL; in test [2], 10.6 µg/mL; in test [3], over 25 µg/mL.

In the case of `C=C[C@@]12CN(C(=O)OCC)CC[C@@H]1[C@](C(=O)OC)(c1cc3ccccc3[nH]1)CO2` [ALSTOLOBINE A], the results for the IC50 in test [1], in test [2] and in test [3] were over 25 µg/mL, 3.51 µg/mL and over 25 µg/mL, respectively.

Consider `COC(=O)C1=C2Nc3ccccc3[C@@]23CCN2C[C@@H](C(C)=O)[C@@H]1C[C@H]23` [ALSTOLUCINE B], for which the IC50 in test [1] was over 25 µg/mL; in test [2] it was 0.64 µg/mL; in test [3], over 25 µg/mL.

Turning to `COC(=O)C1=C2Nc3ccccc3[C@@]23CCN2C[C@H]([C@@H](C)O)[C@@H]1C[C@H]23`, the IC50 in test [1] is over 25 µg/mL; in test [2], 5.12 µg/mL; in test [3], over 25 µg/mL.

With `C/C=C1/CN2CC[C@]34C(=C(C(=O)O)[C@H]1C[C@H]23)Nc1ccccc14` [VINERVINE], the figures for the IC50 in test [1], in test [2] and in test [3] were over 25 µg/mL, 12.1 µg/mL and over 25 µg/mL, respectively.

As for `C=C[C@@]12CNCC[C@@H]1[C@](C(=O)OC)(c1cc3ccccc3[nH]1)CO2`, the IC50 in test [1], in test [2] and in test [3] was over 25 µg/mL each time.

As to `C/C=C1/CN2CC[C@]34C(=C(C(=O)OC)[C@H]1C[C@H]23)Nc1ccccc14` [AKUAMMICINE], the IC50 is over 25 µg/mL in test [1], 12.3 µg/mL in test [2] and over 25 µg/mL in test [3].

`COC(=O)C1=C2Nc3ccccc3[C@@]23CCN2C[C@H]([C@H](C)O)[C@@H]1C[C@H]23`: the IC50 in test [1] was over 25 µg/mL; in test [2], 8.35 µg/mL; in test [3], over 25 µg/mL.

Turning to `COC(=O)C1=C2Nc3ccccc3[C@@]23CC[N+]2([O-])C[C@@H](C(C)=O)[C@@H]1C[C@@H]32` (some centres not stated) [ALSTOLUCINE C], the IC50 in test [1], in test [2] and in test [3] was over 25 µg/mL throughout.

Take `COC(=O)C1=C2Nc3c(O)cccc3[C@@]23CCN2C[C@@H](C(C)=O)[C@@H]1C[C@H]23` [ALSTOLUCINE D]: the IC50 in test [1] was over 25 µg/mL; in test [2] it was 10.3 µg/mL; in test [3], over 25 µg/mL.

Values taken from ChEMBL document CHEMBL1649345, “Strychnan and secoangustilobine A type alkaloids from Alstonia spatulata. Revision of the C-20 configuration of scholaricine” (J Nat Prod, 2010).
